This test relates to 5×-ARE-luciferase transcriptional reporter in primary corticostriatal neuronal co-cultures. Nature of the test: Nrf2 activation, 5×ARE-luciferase reporter assay. Type of test: cell-based, mouse. The following applies: 7 h and 24 h treatment. As to the method: Activation of the 5×-ARE luciferase reporter became stronger with an apparent left-shift in concentration-response for extended treatment over 24 h compared to 7 h. Fold-expression changes are expressed relative to the DMSO-carrier only condition (“0”) normalized to a co-transfected, constitutive Renilla luciferase control and set to a value of 1.
Primary corticostriatal neuronal co-cultures were prepared from E18 Sprague-Dawley rat or C57Bl/6 mouse embryos of either gender. For luciferase reporter assays, the Cignal Antioxidant Response Reporter kit (Qiagen) was used. The 5×ARE luciferase reporter mixture at 40:1 luciferase:Renilla plasmid was transfected into cortical and striatal neurons separately using an Amaxa electroporation device (Lonza). After electroporation, neurons were pooled and immediately plated into 96-well plates containing mature glial cultures. After culturing for 96 h, neuroprotective compositions were added at the indicated concentrations for 7 or 24 h prior to harvesting using Dual-Glo Luciferase Assay System protocol and reagents (Promega). Dual-wavelength luminescence was detected using a SpectraMax L microplate reader (Molecular Devices). Luciferase values were normalized to the internal Renilla control and fold-expression over the DMSO-only treatment control was calculated. At least 3 independent experiments were done using 4-6 biological replicates.
In general terms: Reporter assays use an easily measured gene product as a stand-in for the process of interest.

Turning to `CC1(C)CC[C@]2(C(=O)O)CC[C@]3(C)[C@H](C(=O)C=C4[C@@]5(C)C=C(C#N)C(=O)C(C)(C)[C@@H]5CC[C@]43C)[C@@H]2C1` [bardoxolone], the “induction of 5×-ARE-luciferase reporter” value is “Concentration- and time-dependent induction”.

Source of the values: patent US10960037B2, “Method of treating neurological conditions with extract of Nerium species or Thevetia species” (PHOENIX BIOTECHNOLOGY, INC., priority 2010, dated 2021).
